These are literature values, as cited in article PMC8319603, “Developing C2-Aroyl Indoles as Novel Inhibitors of IDO1 and Understanding Their Mechanism of Inhibition via Mass Spectroscopy, QM/MM Calculations and Molecular Dynamics Simulation” (Frontiers in Chemistry, 2021).

In one series the test system is SKOV3. Further details: method as in Siu et al., 2017; Wen et al., 2019. The following applies: Figure 1; ref Siu et al., 2017; Wen et al., 2019; cited from earlier work.
A further series deals with HeLa. The following applies: Figure 1; ref Prendergast et al., 2017; cited from earlier work.
Another series deals with hIDO1. As to conditions: 2017, cited from earlier work.

Read-outs that look alike come from different tables or passages of the source.

Consider `C[C@@H](C(=O)Nc1ccc(Cl)cc1)C1CCC(c2ccnc3ccc(F)cc23)CC1` (some centres unmarked) [1e], for which the IC50 in the series with SKOV3 is 0.0034 µM.

Take `NS(=O)(=O)NCCNc1nonc1C(=NO)Nc1ccc(F)c(Br)c1` [1b]: the IC50 in the series with HeLa was 0.0015 µM; in the series with hIDO1 (ref Prendergast et al., read-out: IC50 against IDO1) it was […].

As to `O=C1CC(c2c[nH]c3ccc(F)cc23)C(=O)N1` (centres unmarked) [1d], the IC50 with SKOV3 is 0.07 µM; with hIDO1 (Figure 1, ref Siu et al., Wen et al., 2019, read-out: IC50 (IDO1)), […].
